According to patent US12404246B1, “2-aminomethylimidazole mimics of NS4A and their effect thereof on hepatitis C virus NS3 protease” (King Abdulaziz University, priority 2024, dated 2025):

What was measured:
[1] = target: HCV NS3 (Hepatitis C virus genotype 4a, UniProt O39929); conditions: mixed with a substrate peptide; cited from earlier work
[2] = target: T1, HCV NS3 domain of genotype 4a (Hepatitis C virus genotype 4a, UniProt O39929); test: Binding assay by Differential Static Light Scattering (DSLS): aggregation temperature of NS3; conditions: for ΔTagg (aggregation temperature shift of NS3): NS3 domain 15.0 μM with equimolar compound, shift against NS3 alone
T1 construct: NS3 protease domain 1-181 aa+N-terminal T7 tag and C-terminal His tag; T7 tag (N); made in house; host or cells: E. coli Rosette (DE3) pLysS
Source text: In an embodiment, DSLS (Senisterra, Markin et al. 2006) is a preferred method to compare the relative binding potency for binding of a compound of Formula I with HCV NS3. DSLS measure the proteins aggregation temperature (Tagg) as an indicator of its stability (Davis, Walker et al. 2010). It is known that the binding of small molecules to proteins causes shifts of the aggregation temperature (ΔTagg) to higher temperature (Shahul Hameed, Haider et al. 2018). One aspect of this invention is using ΔTagg determination as a method to determine the potency of binding of compounds belonging to formula I to the HCV NS3 protease, in comparison to the native NS4A.
The NS3 domain (15.0 μM), alone or mixed with an equimolar equivalent of tested compound or the NS4A, was added to a binding buffer (20.0 mM HEPES, 10.0 mM DTT, 200 mM NaCl, pH 7.60) to a final volume 100 μL. The mixture was incubated at room temperature with gentle shaking for 2 h. Afterwards, 10 μL of the mixture was transferred into a clear bottomed Nunc 384-well plate and covered by 10 μL paraffin oil to minimize evaporation. Protein aggregation was monitored by tracking the change in scattered light that was detected by a charged coupled device (CCD) camera. Snapshot images of the plate were taken every 0.5° C. The pixel intensities in a preselected region of each well were integrated using image analysis software to generate a value representative of the total amount of scattered light in that region. These intensities were then plotted against temperature for each sample well and fitted to obtain the aggregation temperature (Tagg). Aggregation was monitored and analyzed to assess the effect of NS4A and its synthetic analogues on the stability of the NS3 as an indicator of binding. Each experiment was repeated three times (Triplicate). Statistical analysis was performed using GraphPad Prism v. 8.0® and Instat® v. 3.10 software. The Tagg for the compound was only considered if its […] of the calculated Tagg value.
Each experiment was run as triplicate (Experiment 1, 2 and 3) and the standard deviations (ST.DEV.) were calculated. (results table FIG. 31).

Row | Structure (SMILES) | ΔTagg (aggregation temperature shift of NS3) [2] [°C] | other results
1 | CCCCCCNC(=O)c1ncc(C(=O)NCCCCNC(=N)N)[nH]1 [N5-(4-guanidinobutyl)-N2-n-hexyl-1H-imidazole-2,5-dicarboxamide] |  | inhibition of HCV NS3 protease function [1]: able to inhibit the HCV NS3 from functioning as a protease
2 | O=C(NCc1ccccn1)c1cnc(CNCCOC2CCCCC2)[nH]1 [Comp 10, 2-(((2-(cyclohexyloxy)ethyl)amino)methyl)-N-(pyridin-2-ylmethyl)-1H-imidazole-5-carboxamide] | 0.43 | 
3 | CNC(=O)CNC(=O)c1cnc(CNCCNC(C)=O)[nH]1 [Comp 8, 2-(((2-acetamidoethyl)amino)methyl)-N-(2-(methylamino)-2-oxoethyl)-1H-imidazole-5-carboxamide] | 0.48 | 
4 | CCCCCCNCc1ncc(C(=O)NCc2ccccn2)[nH]1 [Comp 3, 2-((hexylamino)methyl)-N-(pyridin-2-ylmethyl)-1H-imidazole-5-carboxamide] | 0.47 | 
5 | CCCCCCNCc1nc(C(=O)NCc2ccccn2)c[nH]1 [Comp 9, 2-((hexylamino)methyl)-N-(pyridin-2-ylmethyl)-1H-imidazole-4-carboxamide] | 0.91 | 
6 | CC(=O)NCCNCc1nc(C(=O)NCc2ccccn2)c[nH]1 [Comp 13, 2-(((2-acetamidoethyl)amino)methyl)-N-(pyridin-2-ylmethyl)-1H-imidazole-5-carboxamide] | 1.35 | affinity towards the HCV NS3 protein compared to the native viral peptide cofactor NS4A ([2]; DSLS, FIG. 30-32): equal or higher affinity; Tagg (aggregation temperature of NS3 mixed with the substance) ([2]; NS3 domain 15.0 μM with equimolar substance, incubated 2 h, triplicate, NS3 alone Tagg 43.22° C.): 44.40 °C; ΔTagg higher than that of the HCV NS4A ([2]; relative to the shift caused by NS4A): 14%
7 | CC(C)CCCCCNCc1ncc(C(=O)NCc2ccccn2)[nH]1 [Comp 12, 2-(((6-methylheptyl)amino)methyl)-N-(pyridin-2-ylmethyl)-1H-imidazole-5-carboxamide] | 0.57 | 
